According to ChEMBL document CHEMBL2073982, “Bumetanide is not transported by the Ntcp or by the oatp: evidence for a third organic anion transporter in rat liver cells” (Biochim Biophys Acta, 1996):

Biological target: T1, Solute carrier organic anion transporter family member 1A1 (Rattus norvegicus, UniProt P46720)
T1 sequence (P46720 whole entry): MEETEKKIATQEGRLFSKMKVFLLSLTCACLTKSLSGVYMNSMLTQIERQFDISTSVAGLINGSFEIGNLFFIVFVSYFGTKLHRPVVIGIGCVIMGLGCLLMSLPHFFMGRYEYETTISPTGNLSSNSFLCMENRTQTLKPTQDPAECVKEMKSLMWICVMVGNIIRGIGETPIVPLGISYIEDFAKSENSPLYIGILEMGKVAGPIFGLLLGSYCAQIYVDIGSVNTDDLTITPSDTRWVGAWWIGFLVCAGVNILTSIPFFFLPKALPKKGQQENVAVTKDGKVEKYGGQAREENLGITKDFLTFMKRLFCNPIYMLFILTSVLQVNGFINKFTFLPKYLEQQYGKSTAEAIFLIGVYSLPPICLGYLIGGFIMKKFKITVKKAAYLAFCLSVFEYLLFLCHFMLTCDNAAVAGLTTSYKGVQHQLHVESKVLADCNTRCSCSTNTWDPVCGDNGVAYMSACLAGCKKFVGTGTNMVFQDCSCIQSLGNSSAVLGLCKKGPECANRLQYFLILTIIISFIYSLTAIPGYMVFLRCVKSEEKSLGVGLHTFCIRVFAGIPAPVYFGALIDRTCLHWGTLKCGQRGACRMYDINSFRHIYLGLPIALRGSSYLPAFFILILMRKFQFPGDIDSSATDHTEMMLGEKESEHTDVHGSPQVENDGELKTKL
Assay: TP_TRANSPORTER: uptake in Xenopus laevis oocytes
Format: functional, cell-based
Conditions: oocyte

Activity: is not a substrate [-]
Structure (SMILES): CCCCNc1cc(C(=O)O)cc(S(N)(=O)=O)c1Oc1ccccc1 [BUMETANIDE]
